Data: patent US8703811B2, “Small molecule inhibitors of Plasmodium falciparum dihydroorotate dehydrogenase” (Genzyme Corporation, priority 2008, dated 2014)
Read-outs that look alike come from different tables or passages of the source.

How the values were obtained:
[1] = molecular target: pfDHODH (Plasmodium falciparum (isolate 3D7), UniProt Q08210); assay: DHODH chromogen reduction (DCIP) assay, pfDHODH; assay type: biochemical, P. falciparum
Excerpt: Type 2 DHODH activity was monitored with either the direct assay measuring the formation of orotate or via a chromogen reduction assay using DCIP. Although the extinction coefficient and absorption wavelength are preferable for the chromogen reduction assay, the inorganic electron acceptor DCIP can be utilized by DHODH as the final electron acceptor in lieu of CoQn when the endogenous substrate is at a low concentration. As such, the direct assay was used to measure the binding affinity of pfDHODH to CoQD and L-DHO. The enzymatic reaction was performed by varying the L-DHO concentration (1-400 μM) or CoQD concentration (1-200 μM) while keeping the other substrate constant and in excess.
Substrate specificity and enzyme inhibition data was analyzed with GraphPad Prism Version 4 for Windows (GraphPad Software). Kinetic constants were calculated by non-linear regression fitting of the data to the Michaelis-Menten equation [36]. IC50 values were determined by non-linear regression fitting of the data to Equation 1: […]

[2] = test system: P. falciparum 3D7; assay: Inhibition of in vitro P. falciparum culture, [3H]-hypoxanthine uptake, 3D7; assay type: cell-based; details: read-out: 3D7 EC50
Experimental: (§1) P. falciparum strains D10, 3D7, HB3, and Dd2 were obtained from the Malaria Research and Reference Reagent Resource Center (Manassas, Va.). The parasite strains were maintained in vitro by method of Trager and Jensen. The inhibition of P. falciparum growth in the presence of drug was assessed by the relative reduction of [^3H]-hypoxanthine uptake as previously described. Inhibition data were fitted to Equation 1 using non-linear regression analysis except that the relative velocity of parasite growth was substituted for the rate of product formation.

[3] = test system: P. falciparum Dd2; assay: Inhibition of in vitro P. falciparum culture, [3H]-hypoxanthine uptake, Dd2; assay type: cell-based; details: read-out: Dd2 EC50
Experimental: as §1

[4] = Table 2b, read-out: pfDHODH IC50
[5] = Plasmodium falciparum, 3D7, Table 2b
[6] = Plasmodium falciparum, DD2, Table 2b

Sequence of pfDHODH (Q08210 159-565 limits assumed): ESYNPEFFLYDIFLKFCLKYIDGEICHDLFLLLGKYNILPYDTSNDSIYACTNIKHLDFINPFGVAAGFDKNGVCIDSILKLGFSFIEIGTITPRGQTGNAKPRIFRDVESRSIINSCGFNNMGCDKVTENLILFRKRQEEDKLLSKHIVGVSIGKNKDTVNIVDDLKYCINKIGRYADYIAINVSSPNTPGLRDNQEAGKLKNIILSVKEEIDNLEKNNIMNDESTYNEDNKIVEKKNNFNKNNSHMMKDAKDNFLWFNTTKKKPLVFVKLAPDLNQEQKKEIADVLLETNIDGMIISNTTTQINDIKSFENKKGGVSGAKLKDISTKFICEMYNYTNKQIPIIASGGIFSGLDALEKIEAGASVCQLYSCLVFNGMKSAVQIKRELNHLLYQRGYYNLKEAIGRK

SMILES | IC50 ([1]; pfDHODH IC50, Table 2b) [µM] | EC50 ([2]; Table 2b) [µM] | EC50 ([3]; Table 2b) [µM] | IC50 [1, 4] [µM] | EC50 [2, 5] [µM] | EC50 [3, 6] [µM]
Cc1nc2cc(Cl)ccc2n1-c1ccc(C(=O)NC2CC2)s1 [Compound 41] | 0.04 | 0.067 | 0.083 | – | – | –
CCCN(C)C(=O)c1ccc(-n2cnc3ccccc32)s1 [Compound 48] | – | – | – | > 30 | > 5 | > 5
O=C(NC1CC1)c1ccc(-c2nc3ccccc3o2)s1 [Compound 80] | – | – | – | > 30 | 2.58 | 1.71
CC[C@H](C)NC(=O)c1ccc(-n2cnc3ccccc32)s1 [Compound 37] | – | – | – | 17.9 | > 20 | > 20
CCNC(=O)c1cccc(-n2c(C)nc3cc(F)ccc32)c1 [Compound 92] | – | – | – | > 30 | > 1 | > 1
Cn1c(-c2ccc(C(=O)NC3CC3)s2)nc2ccccc21 [Compound 79] | – | – | – | > 30 | > 5 | > 5
O=C(c1ccc(-n2cnc3ccccc32)s1)N1CCC1 [Compound 46] | – | – | – | 16.5 | 5 | 5
Cc1nc2cc(F)c(F)cc2n1-c1ccc(C(=O)NC2CC2)s1 [Compound 95] | – | – | – | 0.105 | – | –
NC(=O)c1ccc(-n2cnc3ccccc32)s1 [Compound 28] | – | – | – | > 30 | > 40 | 20
Cc1nc2ccc(-c3ccccc3)cc2n1-c1ccc(C(=O)NC2CC2)s1 [Compound 98] | – | – | – | 0.089 | – | –
Cc1nc(-c2ccc(Cl)cc2)cn1-c1ccc(C(=O)NC2CC2)s1 [Compound 96] | – | – | – | 0.252 | – | –
CCCNC(=O)c1ccc(N2CCOCC2)s1 [Compound 13, 5-morpholino-N-propylthiophene-2-carboxamide] | – | – | – | > 250 | > 10 | > 10
CCCNC(=O)c1ccc(N2CC(C)Sc3ccccc32)s1 (centres unmarked) [Compound 17, 5-(2-methyl-2H-benzo[b][1,4]thiazin-4(3H)-yl)-N-propylthiophene-2-carboxamide] | – | – | – | 19.1 | > 10 | > 10
Cc1nc2cc(-c3ccccc3)ccc2n1-c1ccc(C(=O)NC2CC2)s1 [Compound 97] | – | – | – | 0.178 | – | –
CC[C@@H](C)NC(=O)c1ccc(-n2cnc3ccccc32)s1 [Compound 47] | – | – | – | > 30 | > 5 | > 5
CCCC/C(=N\O)c1ccc(-n2cnc3ccccc32)s1 [Compound 86, 1-[5-(1H-benzimidazol-1-yl)-2-thienyl]pentan-1-one oxime] | – | – | – | > 30 | 10 | 20
CCCNC(=O)c1ccc(N2Cc3cccc(OC)c3Oc3ncccc32)s1 [Compound 22, 5-(10-methoxybenzo[f]pyrido[2,3-b][1,4]oxazepin-5(6H)-yl)-N-propylthiophene-2-carboxamide] | – | – | – | > 30 | > 10 | > 10
O=C(NC1CC1)c1ccc(-n2nnc3ccccc32)s1 [Compound 99, 5-(1H-benzo[d][1,2,3]triazol-1-yl)-N-cyclopropylthiophene-2-carboxamide] | – | – | – | 28 | – | –
CCCNC(=O)c1ccc(-n2cnc3cncnc32)s1 [Compound 16, N-propyl-5-(9H-purin-9-yl)thiophene-2-carboxamide] | – | – | – | – | > 10 | > 10
Cc1nc2cnccc2n1-c1ccc(C(=O)NC2CC2)s1 [Compound 71] | – | – | – | 3.08 | 3.7 | 6.3
O=C(c1ccc(-n2cnc3ccccc32)s1)N1CCCCC1 [Compound 34] | – | – | – | > 30 | > 20 | > 20
CCCC/C(=N/OC)c1ccc(-n2cnc3ccccc32)s1 [Compound 88, 1-[5-(1H-benzimidazol-1-yl)-2-thienyl]pentan-1-one O-methyloxime] | – | – | – | > 30 | 5.4 | 2.6
CCCNC(=O)c1ccc(N2CCSc3ncccc32)s1 [Compound 21, 5-(2,3-dihydro-1H-pyrido[2,3-b][1,4]thiazin-1-yl)-N-propylthiophene-2-carboxamide] | – | – | – | 13.8 | > 10 | > 10

SMILES | IC50 ([1]; pfDHODH IC50, Table 2b) [µM] | EC50 ([2]; Table 2b) [µM] | EC50 ([3]; Table 2b) [µM] | IC50 [1, 4] [µM] | EC50 [2, 5] [µM] | EC50 [3, 6] [µM]
CCCNC(=O)c1ccc(N2CCCC2)s1 [Compound 14, N-propyl-5-(pyrrolidin-1-yl)thiophene-2-carboxamide] | – | – | – | > 250 | > 10 | > 10
CCCNC(=O)c1ccc(N2CCSc3ccccc32)s1 [Compound 18, 5-(2H-benzo[b][1,4]thiazin-4(3H)-yl)-N-propylthiophene-2-carboxamide] | – | – | – | 9.2 | > 10 | > 10
Cc1nc2ncccc2n1-c1ccc(C(=O)NC2CC2)s1 [Compound 73] | – | – | – | 4.77 | 1.3 | 2.4
CCCC/C(=N\OC)c1ccc(-n2cnc3ccccc32)s1 [Compound 89, 1-[5-(1H-benzimidazol-1-yl)-2-thienyl]pentan-1-one O-methyloxime] | – | – | – | > 30 | 5.3 | 4.4
Cc1nc2cc(OC(C)C)ccc2n1-c1ccc(C(=O)NC2CC2)s1 [Compound 94] | – | – | – | 0.121 | 0.051 | 0.061
c1ccc2oc(-c3ccc(-c4nc5ccccc5o4)s3)nc2c1 [Compound 83] | – | – | – | > 30 | > 5 | > 5
O=C(NC1CC1)c1ccc(-n2ncc3ccccc32)s1 [Compound 100, N-cyclopropyl-5-(1H-indazol-1-yl)thiophene-2-carboxamide] | – | – | – | > 30 | – | –
CN(C)C(=O)c1ccc(-n2cnc3ccccc32)s1 [Compound 27] | – | – | – | > 30 | > 40 | > 40
Cc1nc2cc3ccccc3cc2n1-c1ccc(C(=O)NC2CC2)s1 [Compound 93] | – | – | – | 0.035 | 0.017 | 0.019
CCCNC(=O)c1ccc(N2CCc3ccccc32)s1 [Compound 20, 5-(indolin-1-yl)-N-propylthiophene-2-carboxamide] | – | – | – | > 30 | > 10 | > 10
Cc1nc2ccccc2n1-c1cscc1C(=O)NC1CC1 [Compound 77, N-cyclopropyl-4-(2-methyl-1H-benzo[d]imidazol-1-yl)thiophene-3-carboxamide] | – | – | – | > 30 | > 5 | > 5
CCCCC(O)c1ccc(-n2cnc3ccccc32)s1 (centres unmarked) [Compound 85, 1-[5-(1H-benzimidazol-1-yl)-2-thienyl]pentan-1-ol] | – | – | – | > 30 | 20 | 5.9
CCCC/C(=N/O)c1ccc(-n2cnc3ccccc32)s1 [Compound 87, 1-[5-(1H-benzimidazol-1-yl)-2-thienyl]pentan-1-one oxime] | – | – | – | > 30 | 40 | 10
c1ccc2[nH]c(-c3ccc(-c4nc5ccccc5[nH]4)s3)nc2c1 [Compound 81] | – | – | – | > 30 | 5 | > 5
O=C(c1ccc(-n2cnc3ccccc32)s1)N1CCCC1 [Compound 26] | – | – | – | > 30 | 10 | 20
CCCNC(=O)c1ccc(-n2ccnc2)s1 [Compound 15, 5-(1H-imidazol-1-yl)-N-propylthiophene-2-carboxamide] | – | – | – | 165 | > 10 | > 10
O=C(NC1CC1)c1ccc(-n2c(O)nc3ccccc32)s1 [Compound 45] | – | – | – | > 30 | 5 | 5
CCNC(=O)c1ccc(-n2c(C)nc3cc(F)ccc32)cc1 [Compound 91] | – | – | – | 2.87 | > 0.5 | > 0.5
Cc1nc2cccnc2n1-c1ccc(C(=O)NC2CC2)s1 [Compound 72] | – | – | – | 1.12 | 0.364 | 0.52
Cc1nc2ccccc2n1-c1cc(C(=O)NC2CC2)cs1 [Compound 78, N-cyclopropyl-5-(2-methyl-1H-benzo[d]imidazol-1-yl)thiophene-3-carboxamide] | – | – | – | 1.7 | 1.02 | 2.05
CCCNC(=O)c1ccc(N2CCOc3ccc(Cl)cc32)s1 [Compound 19, 5-(6-chloro-2H-benzo[b][1,4]oxazin-4(3H)-yl)-N-propylthiophene-2-carboxamide] | – | – | – | 7.5 | > 10 | > 10
Cn1c(-c2ccc(-c3nc4ccccc4n3C)s2)nc2ccccc21 [Compound 82] | – | – | – | > 30 | > 5 | > 5
CCCCNC(=O)c1ccc(-n2cnc3ccccc32)s1 [Compound 29] | – | – | – | 28.6 | 20 | 7.3
